The record followed here is patent publication US8906852B2 (MethylGene Inc., priority 2010, dated 2014).

Where only a bound is given, the exact number is not on record here.

The target of the assay is T1, VEGFR/KDR (Homo sapiens, UniProt P35968).
T1 construct: made in house; host or cells: Sf9 cells (Spodoptera frugiperda), baculovirus
T1 sequence (P35968 806-1356): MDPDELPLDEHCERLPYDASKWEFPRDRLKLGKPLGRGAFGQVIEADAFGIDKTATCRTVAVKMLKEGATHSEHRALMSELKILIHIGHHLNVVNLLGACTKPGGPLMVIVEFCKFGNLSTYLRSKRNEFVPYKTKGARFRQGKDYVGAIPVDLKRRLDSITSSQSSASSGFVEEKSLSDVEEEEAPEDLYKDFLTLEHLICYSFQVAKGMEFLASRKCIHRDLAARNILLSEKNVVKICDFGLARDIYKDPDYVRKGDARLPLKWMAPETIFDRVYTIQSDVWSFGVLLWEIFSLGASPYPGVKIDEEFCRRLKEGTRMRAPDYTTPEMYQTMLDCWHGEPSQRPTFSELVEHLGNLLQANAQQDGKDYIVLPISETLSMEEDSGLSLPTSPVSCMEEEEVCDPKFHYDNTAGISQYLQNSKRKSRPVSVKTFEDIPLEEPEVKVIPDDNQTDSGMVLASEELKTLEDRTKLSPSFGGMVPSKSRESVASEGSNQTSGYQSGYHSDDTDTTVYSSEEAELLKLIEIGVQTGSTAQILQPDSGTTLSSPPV
The assay is described as follows: VEGFR/KDR kinase inhibition, DELFIA assay. The format is biochemical. Conditions: ATP 0.6 uM (2x Km), enzyme 5 nM. The method, boiled down: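 DELFIA time-resolved fluorescence readout using Europium-tagged anti-phosphotyrosine antibody after EDTA stop. Kinase reaction on plate-bound poly(Glu4,Tyr) ran 10-30 min at 30° C with 5 nM enzyme and 0.6 uM ATP (2× Km), following 4 min on-ice pre-incubation with compound; IC50 over a concentration range.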
What is called IC50 is the midpoint of a concentration-inhibition curve. For the compound `O=C(Nc1ccc(Oc2ccnc3cc(-c4ccc(CN5CCC(F)(F)C5)cn4)sc23)c(F)c1)NC1CC1` [Compound 315, 1-cyclopropyl-3-(4-(2-(5-((3,3-difluoropyrrolidin-1-yl)methyl)pyridin-2-yl)thieno[3,2-b]pyridin-7-yloxy)-3-fluorophenyl)urea], the IC50 was less than 50 nM.
The same measure for `O=C(Nc1ccc(Oc2ccnc3cc(-c4ccc(CN5CC[C@H](F)C5)cn4)sc23)c(F)c1)NC1CC1` [Compound 323, (S)-1-cyclopropyl-3-(3-fluoro-4-(2-(5-((3-fluoropyrrolidin-1-yl)methyl)pyridin-2-yl)thieno[3,2-b]pyridin-7-yloxy)phenyl)urea]: less than 50 nM; for `O=C(Nc1ccc(Oc2ccnc3cc(-c4ccc(CN5CCN(Cc6cccnc6)CC5)cn4)sc23)c(F)c1)NC1CC1` [Compound 324, 1-cyclopropyl-3-(3-fluoro-4-(2-(5-((4-(pyridin-3-ylmethyl)piperazin-1-yl)methyl)pyridin-2-yl)thieno[3,2-b]pyridin-7-yloxy)phenyl)urea]: less than 50 nM.
The same measure for `O=C(Nc1ccc(Oc2ccnc3cc(-c4ccc(CN5CCN(Cc6ccncc6)CC5)cn4)sc23)c(F)c1)NC1CC1` [Compound 325, 1-cyclopropyl-3-(3-fluoro-4-(2-(5-((4-(pyridin-4-ylmethyl)piperazin-1-yl)methyl)pyridin-2-yl)thieno[3,2-b]pyridin-7-yloxy)phenyl)urea]: less than 50 nM.
`O=C(Nc1ccc(Oc2ccnc3cc(-c4ccc(CN5CCN(Cc6ccccn6)CC5)cn4)sc23)c(F)c1)NC1CC1` [Compound 326, 1-cyclopropyl-3-(3-fluoro-4-(2-(5-((4-(pyridin-2-ylmethyl)piperazin-1-yl)methyl)pyridin-2-yl)thieno[3,2-b]pyridin-7-yloxy)phenyl)urea]: the IC50 was less than 50 nM.
The compound `O=C(Nc1ccc(Oc2ccnc3cc(-c4ccc(CN5CCN(CCOCCO)CC5)cn4)sc23)c(F)c1)NC1CC1` [Compound 327] returned an IC50 of less than 50 nM.
The same measure for `COC(=O)COC1CCN(Cc2ccc(-c3cc4nccc(Oc5ccc(NC(=O)NC6CC6)cc5F)c4s3)nc2)CC1` [Compound 328, methyl 2-(1-((6-(7-(4-(3-cyclopropylureido)-2-fluorophenoxy)thieno [3,2-b]pyridin-2-yl)pyridin-3-yl)methyl)piperidin-4-yloxy)acetate]: less than 50 nM.
Under `O=C(O)COC1CCN(Cc2ccc(-c3cc4nccc(Oc5ccc(NC(=O)NC6CC6)cc5F)c4s3)nc2)CC1` [Compound 329, 2-(1-((6-(7-(4-(3-cyclopropylureido)-2-fluorophenoxy)thieno[3,2-b]pyridin-2-yl)pyridin-3-yl)mcthyI)piperidin-4-yloxy)acetic acid] stands less than 50 nM; under `O=C(O)CCC1CCN(Cc2ccc(-c3cc4nccc(Oc5ccc(NC(=O)NC6CC6)cc5F)c4s3)nc2)CC1` [Compound 330, 3-(1-((6-(7-(4-(3-cyclopropylureido)-2-fluorophenoxy)thieno[3,2-b]pyridin-2-yl)pyridin-3-yl)methyl)piperidin-4-yl)propanoic acid], less than 50 nM.
Under `O=C(Nc1ccc(Oc2ccnc3cc(-c4ccc(CNc5ccc(OCCN6CCOCC6)cc5)cn4)sc23)c(F)c1)NC1CC1` [Compound 331, 1-Cyclopropyl-3-(3-fluoro-4-(2-(5-((4-(2-morpholinoethoxy)phenylamino)methyl)pyridin-2-yl)thieno[3,2-b]pyridin-7-yloxy)phenyl)urea] stands less than 50 nM.
On to `O=C(Nc1ccc(Oc2ccnc3cc(-c4ccc(CNc5cc[nH]n5)cn4)sc23)c(F)c1)NC1CC1` [Compound 332, 1-(4-(2-(5-((1H-Pyrazol-3-ylamino)methyl)pyridin-2-yl)thieno[3,2-b]pyridin-7-yloxy)-3-fluorophenyl)-3-cyclopropylurea], for which the IC50 was less than 50 nM.
Under `Cc1cc(NCc2ccc(-c3cc4nccc(Oc5ccc(NC(=O)NC6CC6)cc5F)c4s3)nc2)n[nH]1` [Compound 333, 1-Cyclopropyl-3-(3-fluoro-4-(2-(5-((5-methyl-1H-pyrazol-3-ylamino)methyl)pyridin-2-yl)thieno[3,2-b]pyridin-7-yloxy)phenyl)urea] stands less than 50 nM; under `Cn1ccc(NCc2ccc(-c3cc4nccc(Oc5ccc(NC(=O)NC6CC6)cc5F)c4s3)nc2)n1` [Compound 334, 1-Cyclopropyl-3-(3-fluoro-4-(2-(5-((1-methyl-1H-pyrazol-3-ylamino)methyl)pyridin-2-yl)thieno[3,2-b]pyridin-7-yloxy)phenyl)urea], less than 50 nM; under `Cc1cc(NCc2ccc(-c3cc4nccc(Oc5ccc(NC(=O)NC6CC6)cc5F)c4s3)nc2)nn1C` [Compound 335, 1-cyclopropyl-3-(4-(2-(5-((1,5-dimethyl-1H-pyrazol-3-ylamino)methyl)pyridin-2-yl)thieno[3,2-b]pyridin-7-yloxy)-3-fluorophenyl)urea], less than 50 nM.
For `CN(C)CCCc1ccc(NCc2ccc(-c3cc4nccc(Oc5ccc(NC(=O)NC6CC6)cc5F)c4s3)nc2)cc1` [Compound 339, 1-cyclopropyl-3-(4-(2-(5-((4-(3-(dimethylamino)propyl)phenylamino)methyl)pyridin-2-yl)thieno[3,2-b]pyridin-7-yloxy)-3-fluorophenyl)urea], the IC50 was less than 50 nM.
As for `CCN(CC)CCNC(=O)c1ccc(NCc2ccc(-c3cc4nccc(Oc5ccc(NC(=O)NC6CC6)cc5F)c4s3)nc2)cc1` [Compound 340, 4-((6-(7-(4-(3-cyclopropylureido)-2-fluorophenoxy)thieno[3,2-b]pyridin-2-yl)pyridin-3-yl)methylamino)-N-(2-(diethylamino)ethyl)benzamide], the IC50 is less than 50 nM.
The same measure for `O=C(Nc1ccc(Oc2ccnc3cc(-c4ccc(CNc5cccc(OCCN6CCOCC6)c5)cn4)sc23)c(F)c1)NC1CC1` [Compound 341, 1-cyclopropyl-3-(3-fluoro-4-(2-(5-((3-(2-morpholinoethoxy)phenylamino)methyl)pyridin-2-yl)thieno[3,2-b]pyridin-7-yloxy)phenyl)urea]: less than 50 nM; for `NC1CCN(Cc2ccc(-c3cc4nccc(Oc5ccc(NC(=O)NC6CC6)cc5F)c4s3)nc2)CC1` [Compound 343, 1-(4-(2-(5-((4-Aminopiperidin-1-yl)methyl)pyridin-2-yl)thieno[3,2-b]pyridin-7-yloxy)-3-fluorophenyl)-3-cyclopropylurea]: less than 50 nM; for `CC(=O)NC1CCN(Cc2ccc(-c3cc4nccc(Oc5ccc(NC(=O)NC6CC6)cc5F)c4s3)nc2)CC1` [Compound 344]: less than 50 nM.
The same measure for `CC(=O)OCC(=O)NC1CCN(Cc2ccc(-c3cc4nccc(Oc5ccc(NC(=O)NC6CC6)cc5F)c4s3)nc2)CC1` [Compound 345]: less than 50 nM; for `O=C(CO)NC1CCN(Cc2ccc(-c3cc4nccc(Oc5ccc(NC(=O)NC6CC6)cc5F)c4s3)nc2)CC1` [Compound 346]: less than 50 nM; for `O=C(CCn1cncn1)NC1CCN(Cc2ccc(-c3cc4nccc(Oc5ccc(NC(=O)NC6CC6)cc5F)c4s3)nc2)CC1` [Compound 347]: less than 50 nM.
`O=C(CCc1cccnc1)NC1CCN(Cc2ccc(-c3cc4nccc(Oc5ccc(NC(=O)NC6CC6)cc5F)c4s3)nc2)CC1` [Compound 348] returned an IC50 of less than 50 nM.
Under `O=C(CCO)NC1CCN(Cc2ccc(-c3cc4nccc(Oc5ccc(NC(=O)NC6CC6)cc5F)c4s3)nc2)CC1` [Compound 349] stands less than 50 nM.
Compound `CS(=O)(=O)NC1CCN(Cc2ccc(-c3cc4nccc(Oc5ccc(NC(=O)NC6CC6)cc5F)c4s3)nc2)CC1` [Compound 350] gave an IC50 of less than 50 nM.
Under `CCOC(=O)NC1CCN(Cc2ccc(-c3cc4nccc(Oc5ccc(NC(=O)NC6CC6)cc5F)c4s3)nc2)CC1` [Compound 351] stands less than 50 nM; under `CNC(=O)NC1CCN(Cc2ccc(-c3cc4nccc(Oc5ccc(NC(=O)NC6CC6)cc5F)c4s3)nc2)CC1` [Compound 352], less than 50 nM; under `CCNC(=O)NC1CCN(Cc2ccc(-c3cc4nccc(Oc5ccc(NC(=O)NC6CC6)cc5F)c4s3)nc2)CC1` [Compound 353], less than 50 nM.
With `CCCNC(=O)NC1CCN(Cc2ccc(-c3cc4nccc(Oc5ccc(NC(=O)NC6CC6)cc5F)c4s3)nc2)CC1` [Compound 354], the concentration for half-maximal inhibition (IC50) is less than 50 nM.
The same measure for `CC(C)NC(=O)NC1CCN(Cc2ccc(-c3cc4nccc(Oc5ccc(NC(=O)NC6CC6)cc5F)c4s3)nc2)CC1` [Compound 355]: less than 50 nM.
Under `CN1CCN(C(=O)NC2CCN(Cc3ccc(-c4cc5nccc(Oc6ccc(NC(=O)NC7CC7)cc6F)c5s4)nc3)CC2)CC1` [Compound 357, N-(1-((6-(7-(4-(3-Cyclopropylureido)-2-fluorophenoxy)thieno[3,2-b]pyridin-2-yl)pyridin-3-yl)methyl)piperidin-4-yl)-4-methylpiperazine-1-carboxamide] stands less than 50 nM; under `CN(CCO)C(=O)NC1CCN(Cc2ccc(-c3cc4nccc(Oc5ccc(NC(=O)NC6CC6)cc5F)c4s3)nc2)CC1` [Compound 358, 1-Cyclopropyl-3-(3-fluoro-4-(2-(5-((4-((2-hydroxyethyl-methylamino)carbonylamino)piperidin-1-yl)methyl)pyridin-2-yl)thieno[3,2-b]pyridin-7-yloxy)phenyl)urea], less than 50 nM; under `CCN(CC)CCn1cc(-c2cc3nccc(Oc4ccc(NC(=O)NC5CC5)cc4F)c3s2)nn1` [Compound 363], less than 50 nM.
The same measure for `O=C(Nc1ccc(Oc2ccnc3cc(-c4cn(CCN5CCOCC5)nn4)sc23)c(F)c1)NC1CC1` [Compound 364]: less than 50 nM.
Take `CN1CCN(C(=O)Cn2cc(-c3cc4nccc(Oc5ccc(NC(=O)NC6CC6)cc5F)c4s3)nn2)CC1` [Compound 365]: the half-maximal inhibitory concentration (IC50) is less than 50 nM.
Consider `CN(C)CCn1cc(-c2cc3nccc(Oc4ccc(NC(=O)NC5CC5)cc4F)c3s2)nn1` [Compound 367], for which the IC50 fell in the range of 50 to 100 nM.
Compound `O=C(Nc1ccc(Oc2ccnc3cc(-c4cn(CC(=O)N5CCOCC5)nn4)sc23)c(F)c1)NC1CC1` [Compound 368] registered an IC50 of less than 50 nM.
In the case of `COC(=O)CCn1cc(-c2cc3nccc(Oc4ccc(NC(=O)NC5CC5)cc4F)c3s2)nn1` [Compound 369], the IC50 is less than 50 nM.
